In ChEMBL document CHEMBL1136080, “(+/-)-2-(3-Piperidyl)-1,2,3,4-tetrahydroisoquinolines as a new class of specific bradycardic agents” (2003):

The compounds below were run on Rattus norvegicus (assay: Dose to produce minimal influence on mean blood pressure in anesthetized rats). Conditions: not given.
Assay type: functional
In the case of COc1cc2c(cc1OC)CN(C1CCCN(CCCOc3ccc4c(c3)OCO4)C1)CC2 (centres undefined), the Dose is reported as 10 mg/kg.

Species: Cavia porcellus
Test: Concentration required to produce 30% reduction (in vitro) from the initial spontaneous beat rates in isolated guinea pig atrium
Assay type: functional
Conditions: Cardiac atrium
Compound COc1cc2c(cc1OC)CN(C1CCCN(CCCOc3cc(OC)c(OC)c(OC)c3)C1)CC2 (centres undefined) has an EC30 of 1500 nM. In the case of COc1cc2c(cc1OC)CN(C1CCCN(CCCCc3ccccc3)C1)CC2 (centres undefined), the EC30 is reported as 540 nM. COc1ccc(OCCCN2CCCC(N3CCc4cc(OC)c(OC)cc4C3)C2)cc1OC (centres undefined) was tested, and the EC30 was 380 nM. COc1cc2c(cc1OC)CN(C1CCCN(CCc3ccccc3)C1)CC2 (centres undefined) showed an EC30 of 2200 nM. COc1cc2c(cc1OC)CN(C1CCCN(CCCOc3ccc4c(c3)-c3ccccc3C4)C1)CC2 (centres undefined) gave an EC30 of 4100 nM. Compound COc1ccc(OCCCN2CCCC(N3CCc4cc(OC)c(OC)cc4C3)C2)cc1 (centres undefined) has an EC30 of 390 nM. Work on COc1cc2c(cc1OC)CN(C1CCCN(CCCOc3ccc4c(c3)OCO4)C1)CC2 (centres undefined) yielded an EC30 of 250 nM. With COc1ccc(CCN(C)CCCN2CCc3cc(OC)c(OC)cc3CC2=O)cc1OC [ZATEBRADINE] the EC30 was 260 nM. In the case of COc1cc2c(cc1OC)CN(C1CCCN(CCCOc3ccc4c(c3)CCC4)C1)CC2 (centres undefined), the EC30 is reported as 660 nM. In the case of COc1cc2c(cc1OC)CN(C1CCCN(CCCc3ccccc3)C1)CC2 (centres undefined), the EC30 is reported as 1200 nM. For COc1cc2c(cc1OC)CN(C1CCCN(CCCCCc3ccccc3)C1)CC2 (centres undefined), the EC30 was 1300 nM. COc1cc2c(cc1OC)CN(C1CCCN(CCCOc3ccc4ccccc4c3)C1)CC2 (centres undefined) gave an EC30 of 840 nM. COc1cc2c(cc1OC)CN(C1CCCN(Cc3ccccc3)C1)CC2 (centres undefined) showed an EC30 of 830 nM. Work on COc1cc2c(cc1OC)CN(C1CCCN(CCCOc3ccccc3)C1)CC2 (centres undefined) yielded an EC30 of 430 nM.

The compounds below were run on Rattus norvegicus (assay: Percentage change in heart rate from the initial value in urethane-anesthetized rats at 3 mg/kg intravenous dose). Conditions: not given.
Assay type: functional
For COc1cc2c(cc1OC)CN(C1CCCN(CCCCc3ccccc3)C1)CC2 (centres undefined), the Change was 23%. In the case of COc1ccc(OCCCN2CCCC(N3CCc4cc(OC)c(OC)cc4C3)C2)cc1OC (centres undefined), the Change is reported as 47%. COc1ccc(OCCCN2CCCC(N3CCc4cc(OC)c(OC)cc4C3)C2)cc1 (centres undefined) was tested, and the Change was 40%. In the case of COc1cc2c(cc1OC)CN(C1CCCN(CCCOc3ccc4c(c3)OCO4)C1)CC2 (centres undefined), the Change is reported as 47%. Work on COc1ccc(CCN(C)CCCN2CCc3cc(OC)c(OC)cc3CC2=O)cc1OC [ZATEBRADINE] yielded a Change of 47%. Work on COc1cc2c(cc1OC)CN(C1CCCN(CCCOc3ccc4c(c3)CCC4)C1)CC2 (centres undefined) yielded a Change of 38%. Work on COc1cc2c(cc1OC)CN(C1CCCN(CCCOc3ccc4ccccc4c3)C1)CC2 (centres undefined) yielded a Change of 23%. COc1cc2c(cc1OC)CN(C1CCCN(Cc3ccccc3)C1)CC2 (centres undefined) was tested, and the Change was 33%. COc1cc2c(cc1OC)CN(C1CCCN(CCCOc3ccccc3)C1)CC2 (centres undefined) showed a Change of 40%.
